Experimental data: patent publication US9168297B2, “Regulation of skin pigmentation by neuregulin-1 (NRG-1)” (The United States of America, as Represented by the …, priority 2010, dated 2015)
Residues, ends and D or L forms follow the SMILES beside them. *: point of attachment. Cbz = O=C(OCc1ccccc1)*

Columns and labels:
HEM-DP melanocytes = assay: Melanin content assay (melanin/protein); type: cell-based, human; conditions: for Pigmentation: 8-mer peptides 100 nM, every day for 9 days, vs vehicle
Protocol: FIGS. 6A and 6B are bar graphs illustrating the effect of NRG-1 on the pigmentation of cultured human melanocytes. FIG. 6A) Lightly-pigmented (HEM-LP) and FIG. 6B) Darkly-pigmented (HEM-DP) melanocytes were treated with or without NRG-1 (50 ng/ml) for 1, 3, 5 or 9 days and proteins were extracted from each sample. After centrifugation at 10,000 g for 15 minutes, precipitates were analyzed for melanin content, and the supernatants were analyzed for protein content. Results are the average of three studies±SD; statistically significant differences are indicated.
FIGS. 9A and 9B are digital images illustrating the effect of pan-ERBB inhibitors on NRG-1 action on human melanocytes and MelanoDerms. FIG. 9A) HEM-DP melanocytes were treated for 9 days with 50 ng/ml NRG-1 in the presence of C39 (0.5 μM) or CI-1033 (2 μM) or vehicle (DMSO) alone. The results are the averages of 3 independent studies±SD. FIG. 9B) Dark MelanoDerms were treated for 9 days with 50 ng/ml NRG-1 in the presence of C39 (0.5 μM) or CI-1033 (2 μM) or vehicle (DMSO) alone. L values shown are the average of 3 spots measured in the center of each Melanoderm.
Melanin contents were determined by dissolving cell pellets overnight at room temperature in 200 μl 1 N NaOH, and melanin concentrations were quantitated by absorbance at 405 nm in a SpectraMax 250 ELISA reader (Molecular Devices) using a standard curve generated from synthetic melanin (Sigma-Aldrich, St. Louis, Mo.). Melanin content is expressed as μg melanin per μg protein. Each study was repeated at least three times.
The effects of NRG-1 on the pigmentation of human melanocytes were also examined. […] However, on day 9, when the cells had reached confluence, the pigmentation level of NRG-1-treated HEM-LP melanocytes was about 35% higher than the control (FIG. 6A).
The EGF domain of NRG-1 can activate the NRG-1 receptors. Two exemplary EGF domains of NRG-1 were aligned (SEQ ID NOs: 9 and 10) and 5 different […] peptides within these two sequences were designed (FIG. 12). Darkly-pigmented human epidermal melanocytes (HEM-DP) were treated with each of the […] peptides (100 nM) or the commercially available rhNRG-1 (6.25 nM) or the vehicle only (0.1% BSA in PBS) every other day for 7 days.
In particular, HEM-DP were treated with each of the 8-mer peptides (WC-6, […], amino acids 3-10 of SEQ ID NO: 10; WC-7, […], amino acids 8-15 of SEQ ID NO: 10; WC-8, […], amino acids 12-19 of SEQ ID NO: 10; WC-9, […], amino acids 16-23 of SEQ ID NO: 10; WC-10, […], amino acids 20-27 of SEQ ID NO: 10; 100 nM) or the full length EGF domain of NRG-1 (WC-11, SEQ ID NO: 10, 100 nM) or the commercially available rhNRG-1 (SEQ ID NO: 11, 6.25 nM) or vehicle only (0.1% BSA in PBS) every day for 9 days.

[1] = system: MelanoDerm 3-D reconstructed human skin; assay: Pigmentation of 3-D reconstructed skin (MelanoDerm), L value and microscopy; type: cell-based; conditions: dark MelanoDerms, 9 days, NRG-1 50 ng/ml with C39 0.5 μM or CI-1033 2 μM, vs control
Protocol: Light, Medium, and Dark human epidermal equivalents (MelanoDerm®) were purchased from MatTek Corp. (Ashland, Mass.). MelanoDerms were grown at the air/liquid interface of the maintenance medium MEL-LLMM (MatTek Corp.), and the culture medium was renewed every 2 days. Where noted, MelanoDerms were treated for 9 days with 50 ng/ml NRG-1 (rhNRG-1-β1, R&D Systems, Minneapolis, Minn.) prepared in phosphate-buffered saline (PBS) with 0.1% bovine serum albumin (BSA) and MelanoDerm maintenance medium. The same concentrations of PBS and BSA were used for mock-treated controls.
For the studies where the MelanoDerms were treated with NRG-1 and/or various pan-ERBB inhibitors, Dark MelanoDerms were first incubated with a pan-ERBB inhibitor (0.5 μM Compound 39, EMD Chemicals, Gibbistown, N.J. or 2 μM CI-1033, Selleck Chemicals LLC, US) for 30 minutes or with vehicle (DMSO) only before treatment with 50 ng/ml NRG-1; identical amounts of DMSO (0.02%) were added to all samples. Treatment was renewed every 2 days in fresh medium and was continued for 9 days.
Three dimensional (3-D) reconstructed human skin models (termed MelanoDerms) were used to test the effects of NRG-1 on skin pigmentation. Three types of MelanoDerm, ‘light’ ([…]), ‘medium’ ([…]) and ‘dark’ ([…]), were used to compare the effects of NRG-1 on those three types of skin. In preliminary studies to optimize the concentration of NRG-1 (from 10 to 200 ng/ml were tested, FIG. 10), 50 ng/ml was chosen which was consistent with concentrations of NRG-1 used for other cell types by other groups. NRG-1 was added to the MelanoDerm media at 50 ng/ml and the medium was replenished every 2 days. On day 9, the MelanoDerms treated with NRG-1 were compared to controls treated only with vehicle. Pigmentation of the skin was assessed using the L value, higher L values indicating lighter colors. […] It should be noted that relatively small changes in ΔL can represent relatively large changes in visible skin color. For example, the mean L value of White/Caucasian skin is 67, that of Asians, Pacific-Islanders is 65, that of Hispanic/Latinos is 64, and that of American Indian/Alaska Native is 62. […] In the vehicle-treated control MelanoDerms, melanin pigment was more evenly distributed throughout the entire epidermis and no visible melanin accumulation was observed around melanocytes (FIG. 3B). […] Therefore, NRG-1 leads to visible increases in pigmentation in the MelanoDerms which was greater as the skin had more constitutive pigmentation.

ERBB2 = ERBB2 protein level by western blotting in melanocytes; type: cell-based, human; conditions: HEM-LP and HEM-DP, NRG-1 50 ng/ml together with MG132 120 nM
Protocol: FIGS. 7A and 7B are digital images illustrating expression of ERBBs after NRG-1 treatment. FIG. 7A) HEM-LP and HEM-DP melanocytes were treated with or without NRG-1 (50 ng/ml) for 5 days, and levels of ERBB2, ERBB3 or ERBB4 were detected by western blotting. Results shown are representative of three studies. FIG. 7B) Expression of ERBB2 was examined in HEM-LP and in HEM-DP melanocytes after 1 or 9 days or treatment with NRG-1 compared to vehicle-treated controls; the results are representative of two independent studies.
FIGS. 8A and 8B are digital images illustrating the mechanism of ERBB2 abrogation after NRG-1 treatment. FIG. 8A) ERBB2 mRNA levels in HEM-LP and in HEM-DP melanocytes were detected by RT-PCR after treatment with or without NRG-1 (50 ng/ml) for 1 day. FIG. 8B) MG132 (120 nM) was added to the melanocyte culture medium to inhibit proteasomal degradation during treatment of HEM-LP and HEM-DP melanocytes with or without NRG-1 (50 ng/ml). Proteins were extracted for each sample, and ERBB2 levels were detected by western blotting. Results are representative of three studies.
Fibroblast cultures in 100-mm dishes were solubilized in appropriate volumes of M-PER mammalian protein extraction reagent (Pierce Biotechnology, Rockford, Ill.) containing a Protease Inhibitor mixture (Roche, Mannheim, Germany) and phosphatase inhibitors. The protein concentration of each extract was measured using a BCA protein assay kit (Pierce, Rockford, Ill.). Cell extracts (20 μg) were separated on 8-16% gradient SDS polyacrylamide gels (Invitrogen, Carlsbad, Calif.), after which proteins were transferred to PVDF membranes (Invitrogen, Carlsbad, Calif.). Membranes were blocked for 1 hour in PBS or Tris buffered saline (TBS) containing 0.1% Tween 20 and 5% (w/v) nonfat dry milk powder and were incubated overnight at 4° C. with the primary antibody in PBS containing 0.1% Tween 20 and 2.5% (w/v) nonfat dry milk powder or in 0.1% Tween-TBS with 5% BSA, depending on the antibody. The following primary antibodies were used: anti-human DKK-1 (0.2 μg/ml), anti-human DKK-3 (0.1 μg/ml), anti-human bFGF (0.1 μg/ml), anti-human SCF (0.1 μg/ml), anti-human mouse monoclonal ERBB3 (1 μg/ml) and anti-human mouse monoclonal ERBB4 (2 μg/ml) antibodies from R&D Systems, neuregulin-1α/β1/2 (C-20) (1:500) and GAPDH (FL-335) (1:10,000) antibodies from Santa Cruz Biotechnology, ERBB2 rabbit monoclonal (1:1000) and phospho-Akt (Ser473) (1:1000) antibodies from Cell Signaling Technology. Membranes were then incubated with an HRP-linked anti-rabbit antibody (GE Healthcare) at 1:10,000 dilution or with an anti-goat antibody (DAKO) at 1:2,000 dilution at room temperature for 1 hour. Antigen-antibody complexes were detected using an ECL-plus Western blotting detection system (GE Healthcare). […]

MelanoDerm Skin Model = assay: Melanogenesis in MelanoDerm skin model, L-[14C]tyrosine assay; type: cell-based, human; conditions: 30 μM lipoic acid, positive control, means ± SEM, Control 100%
Source text: Fibroblasts regulate the distinctive pigmented and thick morphology of skin on the palms and soles compared to the remainder of the body via a factor they secrete termed DKK1. […] [table]

With “WC-9: 8-mer peptide PSRYLCKC, amino acids 16-23 of SEQ ID NO: 10” the Pigmentation (HEM-DP melanocytes) was “statistically significant increases of pigmentation”.
For C=CC(=O)Nc1cc2c(Nc3ccc(F)c(Cl)c3)ncnc2cc1OCCCN1CCOCC1 [CI-1033, reference compound], the “Pigmentation of MelanoDerms, NRG-1 in the presence of ERBB inhibitor” value [1] was “did not increase the pigmentation”, the “Melanin content, inhibitor alone” value (HEM-DP melanocytes; 9 days, C39 0.5 μM or CI-1033 2 μM alone) was “did not affect” and the “Melanin content, NRG-1 in the presence of ERBB inhibitor” value (HEM-DP melanocytes; 9 days, NRG-1 50 ng/ml with C39 0.5 μM or CI-1033 2 μM) was “remained at the same level as the control”.
For “WC-10: 8-mer peptide LCKCPNEF, amino acids 20-27 of SEQ ID NO: 10”, the Pigmentation (HEM-DP melanocytes) was “statistically significant increases of pigmentation”.
CC(C)C[C@@H](C=O)NC(=O)[C@H](CC(C)C)NC(=O)[C@H](CC(C)C)NC(=O)OCc1ccccc1 [MG132, reference compound] (Cbz-Leu-Leu-Leu-aldehyde) was tested, and the “Level of ERBB2 protein” value (ERBB2) was “returned to the control level”.
With “WC-03: 16-mer NRG-1 peptide including amino acids 8-23 of SEQ ID NO: 9 (FMVKDLSNPSRYLCKC)” the “Pigmentation (melanin) compared to control” value (HEM-DP melanocytes; 16-mer peptides 100 nM, every other day for 7 days, n=4) was “highest increase in pigmentation”.
Work on O=C(O)CCCC[C@@H]1CCSS1 (racemic) [Lipoic acid, lipoic acid] yielded a Melanogenesis (MelanoDerm Skin Model) of 2 ± 2%.
